Data as given in patent US20060269613A1, “Composition containing nanoparticles containing water-soluble basic drug encpsulated therein” (priority 2003, published 2006).

Test: Ratio of lactone ring-closed TPT over time in 50% human plasma at 37° C. (HPLC)
Assay type: in vitro ADME
Details: 50% human plasma diluted with PBS
Procedure: Fifty μL of TPT-containing PLA particle formulation or 50 μL of aqueous TPT solution (0.3 mg/mL) containing 50 mg/mL of PEG-4000 and 50 mg/mL of mannitol was freeze-dried. This freeze-dried product (control) and the above-mentioned nanoparticles were each dissolved in 1 mL of 50% human plasma (diluted with PBS), and were incubated at 37° C. For the purpose of investigating the ratio of ring-opening of lactone ring of TPT with lapse of time, 100 μL was taken out from the incubated sample after 0 hour, 2 hours and 4 hours, and was added to 900 μL of methanol. Plasma protein was denatured while the equilibrium of TPT structure was maintained, and, then, the samples were centrifuged at 10000 rpm for 10 minutes so that protein components were precipitated, and, then, the concentration of lactone ring-opened TPT and that of lactone ring-closed TPT in supernatant were measured with HPLC. An aqueous solution of TPT (pH 3; phosphate*hydro-chloride buffer) was used for control.
(§1) Fifty μL of TPT-containing nanoparticle formulation or a 50 μL of aqueous TPT solution (0.3 mg/mL) containing 50 mg/mL of PEG-4000 and 50 mg/mL of mannitol was freeze-dried, and was dissolved in 1 mL of 50% human plasma (diluted with PBS), and were incubated at 37° C. For the purpose of investigating the ratio of ring-opening and ring-closing of lactone ring of TPT with lapse of time, 100 μL of incubated sample was taken out after 0 hour, 2 hours and 4 hours, and was added to 900 μL of methanol. Plasma protein was denatured while the equilibrium of TPT structure was maintained, and, then, the sample was centrifuged at 10000 rpm for 10 minutes so that protein components were precipitated, and, then, the concentration of lactone ring-opened TPT and that of lactone ring-closed TPT in supernatant were measured with HPLC. An aqueous solution of TPT (pH 3; phosphate*hydrochloride buffer) was used for control.
as §1, with “TPT-containing micellar” for “TPT-containing”, “or” for “or a”, “ring-closing” for “ring-closing of lactone ring”, “HPLC.” for “HPLC. An aqueous solution of TPT (pH 3; phosphate*hydrochloride buffer) was used for control.”
as §1, with “nanocapsule particle” for “nanoparticle”, “its freeze-dried product” for “a 50 μL of aqueous TPT solution (0.3 mg/mL) containing 50 mg/mL of PEG-4000 and 50 mg/mL of mannitol was freeze-dried, and”, “ring-closing” for “ring-closing of lactone ring”, “HPLC.” for “HPLC. An aqueous solution of TPT (pH 3; phosphate*hydrochloride buffer) was used for control.”

ratio of ring-closed TPT in 50% human plasma, 0 Hour (Table 1 (Example 1)): 97.5%
ratio of ring-closed TPT in 50% human plasma, 2 Hours (Table 1 (Example 1)): 24.6%
ratio of ring-closed TPT in 50% human plasma, 4 Hours (Table 1 (Example 1)): 19.4%
ratio of ring-closed TPT in 50% human plasma, 0 Hour (Table 2 (Example 2)): 98.8%
ratio of ring-closed TPT in 50% human plasma, 2 Hours (Table 2 (Example 2)): 20.8%
ratio of ring-closed TPT in 50% human plasma, 4 Hours (Table 2 (Example 2)): 13.4%
ratio of ring-closed TPT in 50% human plasma, 0 Hour (Table 3 (Example 3)): 98.9%
ratio of ring-closed TPT in 50% human plasma, 2 Hours (Table 3 (Example 3)): 18.6%
ratio of ring-closed TPT in 50% human plasma, 4 Hours (Table 3 (Example 3)): 14.6%
ratio of ring-closed TPT in 50% human plasma, 0 Hour (Table 4 (Example 5)): 98.2%
ratio of ring-closed TPT in 50% human plasma, 2 Hours (Table 4 (Example 5)): 14.4%
ratio of ring-closed TPT in 50% human plasma, 4 Hours (Table 4 (Example 5)): 11.9%
Structure (SMILES): CC[C@@]1(O)C(=O)OCc2c1cc1n(c2=O)Cc2cc3c(CN(C)C)c(O)ccc3nc2-1 [Control]
